Here are results for two compounds from patent US4246340A, “Method and reagent for bioluminiscence” (LKB-Producter AB, priority 1979, dated 1981).

For experiment [1], the target named is T1, luciferase (Photinus pyralis, UniProt P08659). To be noted: inhibition of luciferase; literature value; cited from earlier work.
Experiment [2] deals with T1, luciferase. The experiment in a line: Inhibition of the luciferase reaction (literature Ki values). Type of experiment: biochemical. The conditions noted are these: if 10^-6 M ATP generated 10^-6 M AMP; estimated from Ki; 1 µM. The text has this: To the extent free AMP and free oxluciferin are formed in the reaction it could also be of interest to study whether this would affect the product inhibition. […] Consequently it may under certain conditions be important to counteract the effect of the generation of free oxyluciferin. The addition of D-luciferin analog makes the initial inhibition of the luciferase so big that the additional inhibition from the oxyluciferin, which is continuously formed during the reaction, will be negligible. The addition of inhibiting concentrations of a D-luciferin analog will thus stabilize the light level.

SMILES strings stand for the structures.

T1 sequence (P08659 whole entry): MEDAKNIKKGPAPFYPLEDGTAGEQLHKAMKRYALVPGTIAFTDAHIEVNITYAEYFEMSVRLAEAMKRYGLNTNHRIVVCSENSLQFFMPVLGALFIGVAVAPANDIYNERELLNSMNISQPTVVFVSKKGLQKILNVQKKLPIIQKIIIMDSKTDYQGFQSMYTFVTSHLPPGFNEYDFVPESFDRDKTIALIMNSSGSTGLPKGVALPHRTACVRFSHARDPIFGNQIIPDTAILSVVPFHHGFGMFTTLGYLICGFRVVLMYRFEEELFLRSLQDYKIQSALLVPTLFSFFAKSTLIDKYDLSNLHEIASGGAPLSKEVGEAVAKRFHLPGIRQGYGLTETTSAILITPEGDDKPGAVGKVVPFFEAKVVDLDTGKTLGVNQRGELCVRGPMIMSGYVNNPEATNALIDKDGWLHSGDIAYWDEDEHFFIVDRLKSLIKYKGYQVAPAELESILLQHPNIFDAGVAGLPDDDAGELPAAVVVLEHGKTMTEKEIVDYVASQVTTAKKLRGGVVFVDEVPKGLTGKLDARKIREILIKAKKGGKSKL

For orientation: Ki means the dissociation constant of the complex between target and ligand, obtained from inhibition or displacement. For `O=C1CSC(c2nc3ccc(O)cc3s2)=N1` [oxyluciferin], on luciferase [1], the Ki is 0.23 µM.

On to `Nc1ncnc2c1ncn2[C@@H]1O[C@H](COP(=O)(O)O)[C@@H](O)[C@H]1O` [AMP, adenosinel monophosphate], for which the “effect on the luciferase activity” value at luciferase [2] is given as “less than 0.5%”. For the same compound, on luciferase [1], the Ki is 240 µM.
